Experimental data as given in ChEMBL document CHEMBL5131552, “Diazepinone Compounds as Sppl2a Inhibitors for Treating Autoimmune Diseases and Lymphomas” (ACS Med Chem Lett, 2022).

Molecular target: T1, Signal peptide peptidase-like 2A (Homo sapiens, UniProt Q8TCT8)
T1 sequence (Q8TCT8 whole entry): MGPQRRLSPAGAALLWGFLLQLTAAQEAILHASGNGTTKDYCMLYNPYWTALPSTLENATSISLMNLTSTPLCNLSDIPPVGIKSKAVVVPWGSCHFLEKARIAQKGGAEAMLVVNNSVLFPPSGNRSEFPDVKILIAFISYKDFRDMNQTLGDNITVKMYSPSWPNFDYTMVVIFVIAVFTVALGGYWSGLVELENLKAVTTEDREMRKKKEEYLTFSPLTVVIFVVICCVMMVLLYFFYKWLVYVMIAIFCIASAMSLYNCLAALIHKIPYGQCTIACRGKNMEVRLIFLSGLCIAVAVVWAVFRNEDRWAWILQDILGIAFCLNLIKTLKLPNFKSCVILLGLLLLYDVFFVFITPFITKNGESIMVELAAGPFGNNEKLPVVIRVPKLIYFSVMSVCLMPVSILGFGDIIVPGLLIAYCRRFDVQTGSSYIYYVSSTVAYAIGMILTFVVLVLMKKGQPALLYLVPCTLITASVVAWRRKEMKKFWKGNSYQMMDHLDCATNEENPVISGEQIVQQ
Assay: Inhibition of human SPPL2A expressed in human U2OS cells assessed as nuclear mask transferring to EGFP channel using EGFP-labeled TNFalpha (aa1-76) NTF as substrate and measured after 24 hrs by Hoechst staining based translocation assay
Format: cell-based

SMILES: CC(C)C(=O)Nc1nc(Cl)c(NC(=O)C[C@@H](C)C(=O)N[C@@H]2C(=O)N3CCCN3Cc3ccccc32)s1
- IC50: 1 nM
